Common to all, as to assay type: functional, Salmonella enterica subsp. enterica serovar Typhimurium
Assay [1] concerns Salmonella typhimurium. In words: Antibacterial activity against Salmonella enterica serovar Typhimurium 01-4 by CLSI M7-A7 agar dilution method.
The subject of assay [2] is Salmonella typhimurium. In words: Antibacterial activity against Salmonella enterica serovar Typhimurium R200 expressing Outer membrane protein STM3031 by CLSI M7-A7 agar dilution method.
Assay [3] deals with Salmonella typhimurium. Briefly: Antibacterial activity against Salmonella enterica serovar Typhimurium R200 expressing stm3031 gene deletion mutant by CLSI M7-A7 agar dilution method.
Assay [4] relates to Salmonella typhimurium. In words: Antibacterial activity against Salmonella enterica serovar Typhimurium 01-4 by Etest method.
Assay [5] has as its system Salmonella typhimurium. In words: Antibacterial activity against Salmonella enterica serovar Typhimurium R1 expressing Outer membrane protein STM3031 after serial passage by Etest method.
Assay [6] deals with Salmonella typhimurium. Briefly: Antibacterial activity against Salmonella enterica serovar Typhimurium R5 expressing Outer membrane protein STM3031 after serial passage by Etest method.
Assay [7] deals with Salmonella typhimurium. In words: Antibacterial activity against Salmonella enterica serovar Typhimurium R10 expressing Outer membrane protein STM3031 after serial passage by Etest method.
The test system of assay [8] is Salmonella typhimurium. In words: Antibacterial activity against Salmonella enterica serovar Typhimurium R25 expressing Outer membrane protein STM3031 after serial passage by Etest method.
Assay [9] has as its system Salmonella typhimurium. Briefly: Antibacterial activity against Salmonella enterica serovar Typhimurium R70 expressing Outer membrane protein STM3031 after serial passage by Etest method.
Setting [10] is: Salmonella enterica subsp. enterica serovar Typhimurium.

Converted amounts (≈) assume the structure as drawn.

For `CN(C)[C@@H]1C(O)=C(C(N)=O)C(=O)[C@@]2(O)C(O)=C3C(=O)c4c(O)cccc4[C@@](C)(O)[C@H]3C[C@@H]12` [TETRACYCLINE], the MIC in [1] worked out at 8 µg/mL (≈ 18 µM); in assay [2], 16 µg/mL (≈ 36 µM); in [3], 4 µg/mL (≈ 9 µM).

As to `CN[C@@H]1[C@H](O[C@H]2[C@H](O[C@H]3[C@H](O)[C@@H](O)[C@H](N=C(N)N)[C@@H](O)[C@@H]3N=C(N)N)O[C@@H](C)[C@]2(O)C=O)O[C@@H](CO)[C@H](O)[C@H]1O` [STREPTOMYCIN], the minimum inhibitory concentration (MIC) was 128 µg/mL (≈ 220 µM) in assay [1], 256 µg/mL (≈ 440 µM) in assay [2] and 128 µg/mL (≈ 220 µM) in [3].

With `CC[C@H]1OC(=O)[C@H](C)[C@@H](O[C@H]2C[C@@](C)(OC)[C@@H](O)[C@H](C)O2)[C@H](C)[C@@H](O[C@@H]2O[C@H](C)C[C@H](N(C)C)[C@H]2O)[C@](C)(O)C[C@@H](C)C(=O)[C@H](C)[C@@H](O)[C@]1(C)O` [ERYTHROMYCIN], the MIC is 128 µg/mL (≈ 174 µM) in assay [1], 4 µg/mL (≈ 5.45 µM) in [2] and 2 µg/mL (≈ 2.73 µM) in [3].

For the molecule `CN[C@@H]1[C@H](O)[C@H](NC)[C@H]2O[C@@]3(O)C(=O)C[C@@H](C)O[C@H]3O[C@@H]2[C@H]1O` [SPECTINOMYCIN], the minimum inhibitory concentration (MIC) in assay [1] and in [2] was above 256 µg/mL in each case.

As for `CC(=O)OCC1=C(C(=O)O)N2C(=O)[C@@H](NC(=O)Cc3cccs3)[C@H]2SC1` [CEPHALOTHIN], the MIC was 4 µg/mL (≈ 10.1 µM) in assay [1], above 256 µg/mL in assay [2] and 128 µg/mL (≈ 323 µM) in assay [3].

On to `CO[C@@H]1[C@@H](OC(N)=O)[C@@H](O)[C@H](Oc2ccc3c(O)c(NC(=O)c4ccc(O)c(CC=C(C)C)c4)c(=O)oc3c2C)OC1(C)C` [NOVOBIOCIN], for which the values for the MIC in assay [1], in assay [2] and in assay [3] were 256 µg/mL (≈ 418 µM), 256 µg/mL (≈ 418 µM) and 128 µg/mL (≈ 209 µM), respectively.

`CO[C@H]1/C=C/O[C@@]2(C)Oc3c(C)c(O)c4c(O)c(c(/C=N/N5CCN(C)CC5)c(O)c4c3C2=O)NC(=O)/C(C)=C\C=C\[C@H](C)[C@H](O)[C@@H](C)[C@@H](O)[C@@H](C)[C@H](OC(C)=O)[C@@H]1C` [RIFAMPIN]: the minimum inhibitory concentration (MIC) in assay [1], in assay [2] and in assay [3] was 16 µg/mL (≈ 19.4 µM) in each case.

Take GENTAMICIN: the minimum inhibitory concentration (MIC) in assay [1] (setting [10]), in assay [2] (setting [10]) and in assay [3] (setting [10]) was 1 µg/mL each time.

For `CCN1CCN(C(=O)N[C@@H](C(=O)N[C@@H]2C(=O)N3[C@@H]2SC(C)(C)[C@@H]3C(=O)O)c2ccccc2)C(=O)C1=O` [PIPERACILLIN], the MIC was 256 µg/mL (≈ 495 µM) in [1] and above 256 µg/mL in assay [2].

In the case of `CO/N=C(\C(=O)N[C@@H]1C(=O)N2C(C(=O)O)=C(CSc3nc(=O)c(O)nn3C)CS[C@H]12)c1csc(N)n1` [CEFTRIAXONE], the minimal inhibitory concentration (MIC) in assay [4] stood at 0.047 µg/mL (≈ 0.0847 µM); in [5] it was 2 µg/mL (≈ 3.61 µM); in [6], 6 µg/mL (≈ 10.8 µM); in assay [7], 12 µg/mL (≈ 21.6 µM); in [8], 24 µg/mL (≈ 43.3 µM); in assay [9], 64 µg/mL (≈ 115 µM). Moreover, the minimum inhibitory concentration (MIC) was 0.047 µg/mL (≈ 0.0847 µM) in assay [1], above 256 µg/mL in assay [2] and 4 µg/mL (≈ 7.21 µM) in assay [3].

For `Cn1nnnc1SCC1=C(C(=O)O)N2C(=O)[C@@H](NC(=O)[C@H](O)c3ccccc3)[C@H]2SC1` [CEFAMANDOLE], the values for the MIC in assay [1], in [2] and in [3] were 2 µg/mL (≈ 4.32 µM), above 256 µg/mL and 64 µg/mL (≈ 138 µM), respectively.

As to `CCn1cc(C(=O)O)c(=O)c2ccc(C)nc21` [NALIDIXIC ACID], the results for the MIC in [1], in [2] and in [3] were 4 µg/mL (≈ 17.2 µM), 1 µg/mL (≈ 4.31 µM) and 0.5 µg/mL (≈ 2.15 µM), respectively.

For the origin of these results see ChEMBL document CHEMBL1649542, “Outer membrane protein STM3031 (Ail/OmpX-like protein) plays a key role in the ceftriaxone resistance of Salmonella enterica serovar Typhimurium” (2009).
